Drawing on patent US20240101521A1, “DIAMINOTRIAZINE COMPOUNDS” (BASF SE, priority 2021, published 2024), this text covers herbicidal activity for 16 compounds.

Assay in all cases: greenhouse pre-emergence herbicidal test
What all share (format): in vivo
What all share (details): scale 0 to 100

One assay has as its system Echinochloa crus-galli. An excerpt:
(§1) The culture containers used were plastic flowerpots containing loamy sand with approximately 3.0% of humus as the substrate. The seeds of the test plants were sown separately for each species.
(§2) For the pre-emergence treatment, the active ingredients, which had been suspended or emulsified in water, were applied directly after sowing by means of finely distributing nozzles. The containers were irrigated gently to promote germination and growth and subsequently covered with transparent plastic hoods until the plants had rooted. This cover caused uniform germination of the test plants, unless this had been impaired by the active ingredients. For the post-emergence treatment, the test plants were first grown to a height of 3 to 15 cm, depending on the plant habit, and only then treated with the active ingredients which had been suspended or emulsified in water. For this purpose, the test plants were either sown directly and grown in the same containers, or they were first grown separately as seedlings and transplanted into the test containers a few days prior to treatment.
(§3) Depending on the species, the plants were kept at 10-25° C. or 20-35° C., respectively.
(§4) The test period extended over 2 to 4 weeks. During this time, the plants were tended, and their response to the individual treatments was evaluated.
(§5) Evaluation was carried out using a scale from 0 to 100. 100 means no emergence of the plants, or complete destruction of at least the aerial moieties, and 0 means no damage, or normal course of growth. A moderate herbicidal activity is given at values of at least 60, a good herbicidal activity is given at values of at least 70, and a very good herbicidal activity is given at values of at least 85.
(§6) The plants used in the greenhouse experiments were of the following species: […]

In the next assay the test system is Abutilon theophrasti.
From the text: as §1, §2, §3, §4, §5, §6

The next assay deals with Setaria faberi.
From the text: as §1, §2, §3, §4, §5, §6

In another assay the test system is Amaranthus retroflexus.
From the text: as §1, §2, §3, §4, §5, §6

As for `COc1c(Br)cc(F)c(F)c1Nc1nc(N)nc(C(C)(C)F)n1` [Example 6, N4-(5-Bromo-2,3-difluoro-6-methoxy-phenyl)-6-(1-fluoro-1-methyl-ethyl)-1,3,5-triazine-2,4-diamine], the herbicidal activity in the assay with Echinochloa crus-galli (pre-emergence, 125 g/ha) came out at 100%; in the assay on Abutilon theophrasti (pre-emergence, 125 g/ha) it was 100%; in the assay with Setaria faberi (pre-emergence, 125 g/ha) it was 100%.
Regarding `COc1c(Cl)cc(F)c(F)c1Nc1nc(N)nc(C(C)(C)F)n1` [Example 7, N4-(5-Chloro-2,3-difluoro-6-methoxy-phenyl)-6-(1-fluoro-1-methyl-ethyl)-1,3,5-triazine-2,4-diamine], the herbicidal activity in the assay on Echinochloa crus-galli (pre-emergence, 125 g/ha) was 100%; in the assay on Abutilon theophrasti (pre-emergence, 125 g/ha) it was 100%; with Setaria faberi (pre-emergence, 125 g/ha), 100%.
Turning to `COc1c(Br)cc(Br)c(F)c1Nc1nc(N)nc(C(C)(C)F)n1` [Example 8], the herbicidal activity is 100% with Echinochloa crus-galli (pre-emergence, 125 g/ha); 100% with Abutilon theophrasti (pre-emergence, 125 g/ha); 100% in the assay on Setaria faberi (pre-emergence, 125 g/ha).
Consider `CC#CCOc1c(Br)cc(F)c(F)c1Nc1nc(N)nc(C2(F)CC2)n1` [Example 56], for which the herbicidal activity stood at 90% with Echinochloa crus-galli (pre-emergence, 62,5 g/ha); 90% with Abutilon theophrasti (pre-emergence, 62,5 g/ha); 100% in the assay on Setaria faberi (pre-emergence, 62,5 g/ha).
As for `CC#CCOc1c(Cl)cc(F)c(F)c1Nc1nc(N)nc(C2(F)CC2)n1` [Example 57], the herbicidal activity with Echinochloa crus-galli (pre-emergence, 31 g/ha) is 100%; with Abutilon theophrasti (pre-emergence, 31 g/ha), 98%; in the assay on Setaria faberi (pre-emergence, 31 g/ha) it was 100%.
On to `CC#CCOc1c(Cl)cc(F)c(F)c1Nc1nc(N)nc(C2(F)CCCC2)n1` [Example 58], for which the herbicidal activity worked out at 100% in the assay on Echinochloa crus-galli (pre-emergence, 62,5 g/ha); 100% with Abutilon theophrasti (pre-emergence, 62,5 g/ha); 100% in the assay with Setaria faberi (pre-emergence, 62,5 g/ha).
Turning to `COc1c(Cl)cc(Cl)c(F)c1Nc1nc(N)nc(C(C)(C)F)n1` [Example 59], the herbicidal activity in the assay with Echinochloa crus-galli (pre-emergence, 62,5 g/ha) is listed as 95%; in the assay on Abutilon theophrasti (pre-emergence, 62,5 g/ha), 100%; in the assay with Setaria faberi (pre-emergence, 62,5 g/ha), 100%.
For the compound `C#CCOc1c(Br)cc(F)c(F)c1Nc1nc(N)nc(C(C)F)n1` (stereo not drawn) [Example 89], the herbicidal activity with Amaranthus retroflexus (pre-emergence, 62 g/ha) is reported as 100%; in the assay with Echinochloa crus-galli (pre-emergence, 62 g/ha), 100%; in the assay with Setaria faberi (pre-emergence, 62 g/ha), 100%.
`CC#CCOc1c(Br)cc(F)c(F)c1Nc1nc(N)nc(C(C)F)n1` (stereo not drawn) [Example 90]: the herbicidal activity in the assay on Amaranthus retroflexus (pre-emergence, 62 g/ha) came to 100%; with Echinochloa crus-galli (pre-emergence, 62 g/ha) it was 100%; in the assay on Setaria faberi (pre-emergence, 62 g/ha), 100%.
For the compound `C#CCOc1c(Cl)cc(F)c(F)c1Nc1nc(N)nc(C(C)F)n1` (stereo not drawn) [Example 91], the herbicidal activity stood at 100% in the assay on Amaranthus retroflexus (pre-emergence, 62 g/ha); 100% in the assay on Echinochloa crus-galli (pre-emergence, 62 g/ha); 100% in the assay with Setaria faberi (pre-emergence, 62 g/ha).
For the compound `CC#CCOc1c(Cl)cc(F)c(F)c1Nc1nc(N)nc(C(C)F)n1` (stereo not drawn) [Example 92], the herbicidal activity was 100% with Amaranthus retroflexus (pre-emergence, 62 g/ha); 100% in the assay with Echinochloa crus-galli (pre-emergence, 62 g/ha); 100% with Setaria faberi (pre-emergence, 62 g/ha).
In the case of `CC(C)(F)c1nc(N)nc(Nc2c(F)c(Cl)cc(Cl)c2OC(F)F)n1` [Example 93], the herbicidal activity with Amaranthus retroflexus (pre-emergence, 62 g/ha) came to 100%; in the assay on Echinochloa crus-galli (pre-emergence, 62 g/ha), 100%; with Setaria faberi (pre-emergence, 62 g/ha) it was 100%.
For the compound `CC#CCOc1c(Cl)cc(F)c(F)c1Nc1nc(N)nc(C(F)C2CC2)n1` (stereo not drawn) [Example 94], the herbicidal activity with Amaranthus retroflexus (pre-emergence, 62 g/ha) is 100%; in the assay on Echinochloa crus-galli (pre-emergence, 62 g/ha), 100%; in the assay on Setaria faberi (pre-emergence, 62 g/ha) it was 100%.
As to `CC#CC(C)Oc1c(Br)cc(F)c(F)c1Nc1nc(N)nc(C(C)(C)F)n1` (stereo not drawn) [Example 95], the herbicidal activity in the assay with Amaranthus retroflexus (pre-emergence, 62 g/ha) was 100%; in the assay on Echinochloa crus-galli (pre-emergence, 62 g/ha), 100%; with Setaria faberi (pre-emergence, 62 g/ha), 100%.
`CCOc1c(Cl)cc(F)c(F)c1Nc1nc(N)nc(C2(F)CCCCC2)n1` [Example 110]: the herbicidal activity was 95% with Amaranthus retroflexus (pre-emergence, 62,5 g/ha); 100% in the assay on Echinochloa crus-galli (pre-emergence, 62,5 g/ha); 85% in the assay on Setaria faberi (pre-emergence, 62,5 g/ha).
As for `C#CCOc1c(Cl)cc(F)c(F)c1Nc1nc(N)nc(C2(F)CCCCC2)n1` [Example 112], the herbicidal activity in the assay on Amaranthus retroflexus (pre-emergence, 62,5 g/ha) is recorded as 95%; in the assay on Echinochloa crus-galli (pre-emergence, 62,5 g/ha), 95%; with Setaria faberi (pre-emergence, 62,5 g/ha), 90%.
